Patent US20090105266A1, “Organic compounds” (priority 2007, published 2009)

Molecular target: T1, mGluR5 (Homo sapiens, UniProt P41594)
T1 construct: expressed in transfected cells
Assay: inhibition of the glutamate (agonist) induced elevation of the inositol phosphate turnover
Assay type: cell-based
Details: inhibition of glutamate induced elevation of inositol phosphate turnover at 0.1 μM
Source text: This can be determined in vitro for example at recombinant human metabotropic glutamate receptors, especially PLC-coupled subtypes thereof such as mGluR5, using different procedures like, for example, measurement of the inhibition of the agonist induced elevation of intracellular Ca^2+ concentration in accordance with L. P. Daggett et al., Neuropharm. Vol. 34, pages 871-886 (1995), P. J. Flor et al., J. Neurochem. Vol. 67, pages 58-63 (1996) or by determination to what extent the agonist induced elevation of the inositol phosphate turnover is inhibited as described by T. Knoepfel et al., Eur. J. Pharmacol. Vol. 288, pages 389-392 (1994), L. P. Daggett et al., Neuropharm. Vol. 67, pages 58-63 (1996) and references cited therein. Isolation and expression of human mGluR subtypes are described in U.S. Pat. No. 5,521,297. Selected agents of the invention show IC50 values for the inhibition of the agonist (e.g. glutamate or quisqualate) induced elevation of intracellular Ca2+ concentration or the agonist (e.g. glutamate or quisqualate) induced inositol phosphate turnover, measured in recombinant cells expressing hmGluR^5a of about 0.1 nM to about 50 μM.
Activity of compounds of the present invention was examined by determination to what extent the agonist induced elevation of the inositol phosphate turnover is inhibited as described by T. Knoepfel et al., Eur. J. Pharmacol. Vol. 288, pages 389-392 (1994), L. P. Daggett et al., Neuropharm. Vol. 67, pages 58-63 (1996) and references cited therein.
The table below represents percentages of inhibition of the glutamate induced elevation of the inositol phosphate turnover at a concentration of 0.1 μM.

T1 sequence (P41594 21-1180 isoform P41594-2 limits assumed): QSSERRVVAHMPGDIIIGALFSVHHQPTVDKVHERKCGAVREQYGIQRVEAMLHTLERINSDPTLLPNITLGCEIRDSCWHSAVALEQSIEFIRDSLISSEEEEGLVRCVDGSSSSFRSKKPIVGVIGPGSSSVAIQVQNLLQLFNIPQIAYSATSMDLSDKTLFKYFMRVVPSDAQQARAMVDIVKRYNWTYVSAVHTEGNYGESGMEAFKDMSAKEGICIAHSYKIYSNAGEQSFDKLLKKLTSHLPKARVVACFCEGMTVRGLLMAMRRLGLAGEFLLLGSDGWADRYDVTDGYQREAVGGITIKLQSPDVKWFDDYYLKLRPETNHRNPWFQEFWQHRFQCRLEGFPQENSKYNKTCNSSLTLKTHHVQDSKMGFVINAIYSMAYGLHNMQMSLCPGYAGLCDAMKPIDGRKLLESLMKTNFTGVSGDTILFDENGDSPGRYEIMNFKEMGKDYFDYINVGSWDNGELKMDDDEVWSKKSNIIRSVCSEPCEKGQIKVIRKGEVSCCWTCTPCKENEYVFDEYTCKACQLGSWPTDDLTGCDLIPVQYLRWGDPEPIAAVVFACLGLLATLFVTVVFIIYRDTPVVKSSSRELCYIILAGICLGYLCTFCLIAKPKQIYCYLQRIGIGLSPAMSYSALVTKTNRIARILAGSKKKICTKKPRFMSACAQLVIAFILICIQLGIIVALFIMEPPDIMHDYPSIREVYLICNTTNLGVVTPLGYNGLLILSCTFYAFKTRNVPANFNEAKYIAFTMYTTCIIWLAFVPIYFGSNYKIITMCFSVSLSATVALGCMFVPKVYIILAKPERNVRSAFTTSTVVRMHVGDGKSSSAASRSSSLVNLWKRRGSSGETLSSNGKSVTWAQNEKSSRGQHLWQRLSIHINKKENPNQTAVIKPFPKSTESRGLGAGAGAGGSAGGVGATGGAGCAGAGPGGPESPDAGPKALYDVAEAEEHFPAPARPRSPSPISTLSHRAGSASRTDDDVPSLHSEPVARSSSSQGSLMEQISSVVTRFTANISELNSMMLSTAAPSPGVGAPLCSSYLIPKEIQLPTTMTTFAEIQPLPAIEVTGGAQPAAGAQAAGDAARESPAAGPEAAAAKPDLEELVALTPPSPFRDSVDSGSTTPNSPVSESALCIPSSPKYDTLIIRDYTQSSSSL

inhibition at 0.1 µM [%]	SMILES
40	CCCn1c(-c2cnc(Nc3cccc(F)c3F)c(Cl)c2)nc2cccc(Cl)c21 [Example 58, [3-Chloro-5-(7-chloro-1-propyl-1H-benzoimidazol-2-yl)-pyridin-2-yl]-(2,3-difluoro-phenyl)-amine]
99	CCCn1c(-c2ccc(Nc3ccc(C)nc3)c(Cl)c2)nc2ccc(F)cc21 [Example 115, [2-Chloro-4-(6-Fluoro-1-propyl-1H-benzoimidazol-2-yl)-phenyl]-(6-methyl-pyridin-3-yl)-amine]
64	CCCn1c(-c2ccc(Nc3ccc(OC)cc3)nc2)nc2ccc(F)cc21 [Example 107, [5-(6-Fluoro-1-propyl-1H-benzoimidazol-2-yl)-pyridin-2-yl]-(4-methoxy-phenyl)-amine]
97	CCCn1c(-c2cnc(Nc3ccc(C)nc3)c(Cl)c2)nc2cc(I)cc(Cl)c21 [Example 34b, [3-Chloro-5-(7-chloro-5-iodo-1-propyl-1H-benzoimidazol-2-yl)-pyridin-2-yl]-(6-methyl-pyridin-3-yl)-amine]

Second part, the compound before the results:

SMILES	inhibition at 0.1 µM [%]
CCCn1c(-c2cnc(Nc3ccc(Cl)cc3)nc2)nc2cccc(Cl)c21 [Example 91, (4-Chloro-phenyl)-[5-(7-chloro-1-propyl-1H-benzoimidazol-2-yl)-pyrimidin-2-yl]-amine]	100
CCCn1c(-c2ccc(Nc3ccc(C)cc3)cc2)nc2ccc(F)cc21 [Example 83, [4-(6-Fluoro-1-propyl-1H-benzoimidazol-2-yl)-phenyl]-p-tolyl-amine]	52
CCCn1c(-c2cnc(Nc3ccc(C)nc3)c(Cl)c2)nc2c(C)ccc(C)c21 [Example 29, [3-Chloro-5-(4,7-dimethyl-1-propyl-1H-benzoimidazol-2-yl)-pyridin-2-yl]-(6-methyl-pyridin-3-yl)-amine]	99
CCCn1c(-c2cnc(Nc3ccc(OC)cc3)c(Cl)c2)nc2cccc(Cl)c21 [Example 75, [3-Chloro-5-(7-chloro-1-propyl-1H-benzoimidazol-2-yl)-pyridin-2-yl]-(4-methoxy-phenyl)-amine]	99
CCCn1c(-c2cnc(Nc3ccc(C)nc3)c(Cl)c2)nc2ccc(C)c(C)c21 [Example 26, [3-Chloro-5-(6,7-dimethyl-1-propyl-1H-benzoimidazol-2-yl)-pyridin-2-yl]-(6-methyl-pyridin-3-yl)-amine]	98
CCCn1c(-c2cnc(Nc3ccc(C#N)cc3)c(Cl)c2)nc2cccc(Cl)c21 [Example 56, 4-[3-Chloro-5-(7-chloro-1-propyl-1H-benzoimidazol-2-yl)-pyridin-2-ylamino]-benzonitrile]	100
CCCn1c(-c2ccc(Nc3ccc(OC)cc3)nn2)nc2cccc(Cl)c21 [Example 86, [6-(7-Chloro-1-propyl-1H-benzoimidazol-2-yl)-pyridazin-3-yl]-(4-methoxy-phenyl)-amine]	60
Cc1ccc(Nc2ncc(-c3nc4cccc(Cl)c4n3CC(C)C)cc2Cl)cn1 [Example 114c, [3-chloro-5-(7-chloro-1-isobutyl-1H-benzoimidazol-2-yl)-pyridin-2-yl]-(6-methyl-pyridin-3-yl)-amine]	111
CCCn1c(-c2ccc(Nc3ccc(C)nc3)c(Cl)c2)nc2cccc(Cl)c21 [Example 98, [2-Chloro-4-(7-chloro-1-propyl-1H-benzoimidazol-2-yl)-phenyl]-(6-methyl-pyridin-3-yl)-amine]	103
CCCn1c(-c2cnc(Nc3ccc(C)nc3)c(Cl)c2)nc2ccc(C)cc21 [Example 23, [3-Chloro-5-(6-methyl-1-propyl-1H-benzoimidazol-2-yl)-pyridin-2-yl]-(6-methyl-pyridin-3-yl)-amine]	84
